Measurements as given in the NIST ThermoML archive (doi:10.1016/j.jct.2011.10.028).
± gives the expanded uncertainty stated by the source.

Key:
[1] = 300.15 K; 101.33 kPa; Liquid; Pycnometric method
[2] = refractive index (Na D-line) (dimensionless); conditions: 300.15 K; 101.33 kPa; Liquid; Standard Abbe refractometry
[3] = relative permittivity at zero frequency (dimensionless); conditions: 300.15 K; 101.33 kPa; Liquid; impedance analyzer

CCCO [propan-1-ol]
mass density [1]: 798.5 ± 0.4 kg/m3
refractive index [2]: 1.391 ± 0.001
relative permittivity at zero frequency [3]: 20.678 ± 0.001

CC(C)O [propan-2-ol]
mass density [1]: 779.2 ± 0.4 kg/m3
refractive index [2]: 1.383 ± 0.001
relative permittivity at zero frequency [3]: 18.562 ± 0.001

CNc1ccccc1 [N-methylaniline]
mass density [1]: 979.8 ± 0.6 kg/m3
refractive index [2]: 1.566 ± 0.001
relative permittivity at zero frequency [3]: 5.878 ± 0.001
